From ChEMBL document CHEMBL3044680, “Synthesis, characterization, and antimicrobial studies of novel 1,3,4-thiadiazolium-5-thiolates” (2012) come the findings set out here.

Common to all, as to assay type: functional
Experiment [1] relates to Pseudomonas aeruginosa. As to the kind of experiment: Antimicrobial activity against Pseudomonas aeruginosa after overnight incubation by broth dilution method. (Broth dilution looks for growth in wells or tubes with falling amounts of substance.)
Experiment [2] concerns Escherichia coli. As to the kind of experiment: Antimicrobial activity against Escherichia coli after overnight incubation by broth dilution method.
The subject of experiment [3] is Bacillus subtilis. The experiment is described as follows: Antimicrobial activity against Bacillus subtilis after overnight incubation by broth dilution method.
Experiment [4] deals with Staphylococcus aureus. As to the kind of experiment: Antimicrobial activity against Staphylococcus aureus after overnight incubation by broth dilution method.
The test system of experiment [5] is Pseudomonas aeruginosa. As to the kind of experiment: Antimicrobial activity against Pseudomonas aeruginosa at 200 ug/ml after 48 hr by cup-plate method. The note with it: read-out: IZ.
Experiment [6] has as its system Bacillus subtilis. The experiment is described as follows: Antimicrobial activity against Bacillus subtilis at 200 ug/ml after 48 hr by cup-plate method. The settings on record: read-out: IZ.
The subject of experiment [7] is Escherichia coli. As to the kind of experiment: Antimicrobial activity against Escherichia coli at 200 ug/ml after 48 hr by cup-plate method. The settings on record: read-out: IZ.
Experiment [8] deals with Staphylococcus aureus. As to the kind of experiment: Antimicrobial activity against Staphylococcus aureus at 200 ug/ml after 48 hr by cup-plate method. The note with it: read-out: IZ.

Values after ≈ are worked out from the molar mass of the structure shown.

As a reminder, the MIC is the lowest concentration that inhibits growth of the organism. Low values mean greater potency, high ones weaker potency. Regarding `Cc1sc([S-])n[n+]1C(=O)c1ccc(-n2c(-c3ccccc3)nc3ccccc3c2=O)cc1`, the MIC amounted to 16 mg/L (≈ 35 µM) in experiment [1], 32 mg/L (≈ 70.1 µM) in experiment [2], 8 mg/L (≈ 17.5 µM) in experiment [3] and 1 mg/L (≈ 2.19 µM) in experiment [4]. Besides, the zone of inhibition at 200 µg/mL in experiment [5] came out at 18 mm; in experiment [6] it was 22 mm; in experiment [7], 17 mm; in experiment [8], 28 mm.

Regarding `O=C(c1ccc(-n2c(-c3ccccc3)nc3ccccc3c2=O)cc1)[n+]1nc([S-])sc1-c1ccccc1`, the MIC in experiment [1] came out at 8 mg/L (≈ 15.4 µM); in experiment [2], 2 mg/L (≈ 3.86 µM); in experiment [3] it was 2 mg/L (≈ 3.86 µM); in experiment [4] it was 4 mg/L (≈ 7.71 µM). The zone of inhibition at 200 µg/mL in experiment [5] was 22 mm; in experiment [6] it was 25 mm; in experiment [7] it was 28 mm; in experiment [8], 24 mm.

In the case of `O=C(c1ccc(-n2c(-c3ccccc3)nc3ccccc3c2=O)cc1)[n+]1nc([S-])sc1-c1cc([N+](=O)[O-])ccc1Cl`, the minimal inhibitory concentration (MIC) is 8 mg/L (≈ 13.4 µM) in experiment [1], 16 mg/L (≈ 26.8 µM) in experiment [2], 16 mg/L (≈ 26.8 µM) in experiment [3] and 2 mg/L (≈ 3.34 µM) in experiment [4]. For the same compound, the zone of inhibition at 200 µg/mL is 22 mm in experiment [5], 18 mm in experiment [6], 19 mm in experiment [7] and 26 mm in experiment [8].

In the case of `O=C(c1ccc(-n2c(-c3ccccc3)nc3ccccc3c2=O)cc1)[n+]1nc([S-])sc1-c1ccc(Cl)c([N+](=O)[O-])c1`, the MIC in experiment [1] came to 4 mg/L (≈ 6.69 µM); in experiment [2], 8 mg/L (≈ 13.4 µM); in experiment [3] it was 64 mg/L (≈ 107 µM); in experiment [4] it was 8 mg/L (≈ 13.4 µM). Besides, the zone of inhibition at 200 µg/mL in experiment [5] is 24 mm; in experiment [6], 14 mm; in experiment [7], 22 mm; in experiment [8], 20 mm.

As to `COc1ccc(-c2sc([S-])n[n+]2C(=O)c2ccc(-n3c(-c4ccccc4)nc4ccccc4c3=O)cc2)cc1[N+](=O)[O-]`, the minimal inhibitory concentration (MIC) was 2 mg/L (≈ 3.37 µM) in experiment [1], 32 mg/L (≈ 53.9 µM) in experiment [2], 32 mg/L (≈ 53.9 µM) in experiment [3] and 16 mg/L (≈ 27 µM) in experiment [4]. Also, the zone of inhibition at 200 µg/mL in experiment [5] came to 27 mm; in experiment [6], 16 mm; in experiment [7], 15 mm; in experiment [8] it was 19 mm.

`O=C(c1ccc(-n2c(-c3ccccc3)nc3ccccc3c2=O)cc1)[n+]1nc([S-])sc1-c1ccc(Cl)cc1`: the MIC was 8 mg/L (≈ 14.5 µM) in experiment [1], 16 mg/L (≈ 28.9 µM) in experiment [2], 8 mg/L (≈ 14.5 µM) in experiment [3] and 8 mg/L (≈ 14.5 µM) in experiment [4]. Further, the zone of inhibition at 200 µg/mL in experiment [5] is 21 mm; in experiment [6] it was 20 mm; in experiment [7] it was 16 mm; in experiment [8] it was 22 mm.

In the case of `O=C(c1ccc(-n2c(-c3ccccc3)nc3ccccc3c2=O)cc1)[n+]1nc([S-])sc1-c1ccc([N+](=O)[O-])cc1`, the MIC was found to be 8 mg/L (≈ 14.2 µM) in experiment [1], 4 mg/L (≈ 7.1 µM) in experiment [2], 4 mg/L (≈ 7.1 µM) in experiment [3] and 8 mg/L (≈ 14.2 µM) in experiment [4]. The zone of inhibition at 200 µg/mL in experiment [5] is 22 mm; in experiment [6] it was 24 mm; in experiment [7], 23 mm; in experiment [8], 20 mm.

Take `O=C(c1ccc(-n2c(-c3ccccc3)nc3ccccc3c2=O)cc1)[n+]1nc([S-])sc1-c1cccc([N+](=O)[O-])c1`: the MIC in experiment [2], in experiment [3] and in experiment [4] was 64 mg/L (≈ 114 µM) each time. The zone of inhibition at 200 µg/mL turned out to be 10 mm in experiment [5], 15 mm in experiment [6], 13 mm in experiment [7] and 11 mm in experiment [8].

Turning to `Cc1sc([S-])n[n+]1C(=O)c1ccc(Nc2nc(-c3ccccc3)nc3ccccc23)cc1`, the MIC worked out at 4 mg/L (≈ 8.78 µM) in experiment [1], 8 mg/L (≈ 17.6 µM) in experiment [2], 8 mg/L (≈ 17.6 µM) in experiment [3] and 16 mg/L (≈ 35.1 µM) in experiment [4]. The zone of inhibition at 200 µg/mL in experiment [5] was found to be 23 mm; in experiment [6] it was 21 mm; in experiment [7], 20 mm; in experiment [8] it was 19 mm.

Turning to `O=C(c1ccc(Nc2nc(-c3ccccc3)nc3ccccc23)cc1)[n+]1nc([S-])sc1-c1ccccc1`, the MIC in experiment [1] came to 4 mg/L (≈ 7.73 µM); in experiment [2] it was 8 mg/L (≈ 15.5 µM); in experiment [3], 16 mg/L (≈ 30.9 µM); in experiment [4], 16 mg/L (≈ 30.9 µM). The zone of inhibition at 200 µg/mL in experiment [5] amounted to 24 mm; in experiment [6], 18 mm; in experiment [7] it was 20 mm; in experiment [8], 19 mm.

`O=C(c1ccc(Nc2nc(-c3ccccc3)nc3ccccc23)cc1)[n+]1nc([S-])sc1-c1cc([N+](=O)[O-])ccc1Cl`: the MIC came out at 2 mg/L (≈ 3.35 µM) in experiment [1], 4 mg/L (≈ 6.7 µM) in experiment [2], 8 mg/L (≈ 13.4 µM) in experiment [3] and 4 mg/L (≈ 6.7 µM) in experiment [4]. The zone of inhibition at 200 µg/mL in experiment [5] was 26 mm; in experiment [6] it was 22 mm; in experiment [7], 24 mm; in experiment [8] it was 23 mm.

On to `O=C(c1ccc(Nc2nc(-c3ccccc3)nc3ccccc23)cc1)[n+]1nc([S-])sc1-c1ccc(Cl)c([N+](=O)[O-])c1`, for which the MIC in experiment [1] is 8 mg/L (≈ 13.4 µM); in experiment [2] it was 32 mg/L (≈ 53.6 µM); in experiment [3], 16 mg/L (≈ 26.8 µM); in experiment [4], 8 mg/L (≈ 13.4 µM). Besides, the zone of inhibition at 200 µg/mL in experiment [5] was 22 mm; in experiment [6], 19 mm; in experiment [7], 15 mm; in experiment [8], 20 mm.

With `COc1ccc(-c2sc([S-])n[n+]2C(=O)c2ccc(Nc3nc(-c4ccccc4)nc4ccccc34)cc2)cc1[N+](=O)[O-]`, the MIC turned out to be 8 mg/L (≈ 13.5 µM) in experiment [1], 4 mg/L (≈ 6.75 µM) in experiment [2], 4 mg/L (≈ 6.75 µM) in experiment [3] and 8 mg/L (≈ 13.5 µM) in experiment [4]. The zone of inhibition at 200 µg/mL was 22 mm in experiment [5], 24 mm in experiment [6], 23 mm in experiment [7] and 22 mm in experiment [8].

Regarding `O=C(c1ccc(Nc2nc(-c3ccccc3)nc3ccccc23)cc1)[n+]1nc([S-])sc1-c1ccc(Cl)cc1`, the MIC stood at 4 mg/L (≈ 7.25 µM) in experiment [1], 8 mg/L (≈ 14.5 µM) in experiment [2], 8 mg/L (≈ 14.5 µM) in experiment [3] and 16 mg/L (≈ 29 µM) in experiment [4]. In addition, the zone of inhibition at 200 µg/mL was determined as 24 mm in experiment [5], 21 mm in experiment [6], 22 mm in experiment [7] and 19 mm in experiment [8].

For `O=C(c1ccc(Nc2nc(-c3ccccc3)nc3ccccc23)cc1)[n+]1nc([S-])sc1-c1ccc([N+](=O)[O-])cc1`, the MIC is 32 mg/L (≈ 56.9 µM) in experiment [1], 16 mg/L (≈ 28.4 µM) in experiment [2], 16 mg/L (≈ 28.4 µM) in experiment [3] and 32 mg/L (≈ 56.9 µM) in experiment [4]. Also, the zone of inhibition at 200 µg/mL in experiment [5] stood at 15 mm; in experiment [6], 19 mm; in experiment [7], 18 mm; in experiment [8], 16 mm.

On to `O=C(c1ccc(Nc2nc(-c3ccccc3)nc3ccccc23)cc1)[n+]1nc([S-])sc1-c1cccc([N+](=O)[O-])c1`, for which the MIC came to 8 mg/L (≈ 14.2 µM) in experiment [1], 16 mg/L (≈ 28.4 µM) in experiment [2], 32 mg/L (≈ 56.9 µM) in experiment [3] and 8 mg/L (≈ 14.2 µM) in experiment [4]. Also, the zone of inhibition at 200 µg/mL was 22 mm in experiment [5], 16 mm in experiment [6], 20 mm in experiment [7] and 21 mm in experiment [8].

On to `O=C(O)c1cn(C2CC2)c2cc(N3CCNCC3)c(F)cc2c1=O` [CIPROFLOXACIN], for which the MIC in experiment [3] worked out at 0.5 mg/L (≈ 1.51 µM); in experiment [4] it was 1 mg/L (≈ 3.02 µM). Moreover, the zone of inhibition at 200 µg/mL came to 41 mm in experiment [5], 35 mm in experiment [6], 38 mm in experiment [7] and 31 mm in experiment [8].
